Consider 1 compound from patent US9072800B2, “Hand sanitizer” (TRISTEL PLC, priority 2009, dated 2015).

The series can be described thus: Flash point by Tag Closed Cup. Type of series: physicochemical. From the text: MMB also has the benefit over ethanol that it is substantially non-flammable. […] MMB is considered to be extremely safe, having no R and S phrases and Occupational Exposure Limit.

On to `COC(C)(C)CCO` [MMB, 3-methoxy-3-methylbutan-1-ol], for which the flash point came to 68 °C.
